From ChEMBL document CHEMBL5052841, “Usp19 inhibitors for use in therapy” (2020)
Calls of active or inactive are those of the source. The calls are words filed in the database; no cut-off is given here.

Assays:
[1] = Toxicity in high-fat diet-induced obesity model of male C57BL/6J mouse assessed as decrease in total ash content at 0.1 mg/kg, sc administered twice daily; format: organism-based; set-up: scale not given: the % may be the effect or the level left; settings: in vivo
[2] = Toxicity in high-fat diet-induced obesity model of male C57BL/6J mouse assessed as decrease in total protein content at 0.1 mg/kg, sc administered twice daily; format: organism-based; set-up: scale not given: the % may be the effect or the level left; settings: in vivo
[3] = Toxicity in high-fat diet-induced obesity model of male C57BL/6J mouse assessed as decrease in total body weight at 0.1 mg/kg, sc administered twice daily; format: organism-based; set-up: scale not given: the % may be the effect or the level left; settings: in vivo
[4] = Toxicity in high-fat diet-induced obesity model of male C57BL/6J mouse assessed as decrease in body water content at 0.1 mg/kg, sc administered twice daily; format: organism-based; set-up: scale not given: the % may be the effect or the level left; settings: in vivo
[5] = Toxicity in high-fat diet-induced obesity model of male C57BL/6J mouse assessed as reduction in body fat at 0.1 mg/kg, sc administered twice daily; format: organism-based; set-up: scale not given: the % may be the effect or the level left; settings: in vivo
[6] = molecular target: T1, Ubiquitin carboxyl-terminal hydrolase 19 (Homo sapiens, UniProt O94966); assay: Inhibition of USP19 (unknown origin) in breast cancer cell measured by cell target engagement assay; set-up: species or system Breast cancer cell line
T1 sequence (O94966 whole entry): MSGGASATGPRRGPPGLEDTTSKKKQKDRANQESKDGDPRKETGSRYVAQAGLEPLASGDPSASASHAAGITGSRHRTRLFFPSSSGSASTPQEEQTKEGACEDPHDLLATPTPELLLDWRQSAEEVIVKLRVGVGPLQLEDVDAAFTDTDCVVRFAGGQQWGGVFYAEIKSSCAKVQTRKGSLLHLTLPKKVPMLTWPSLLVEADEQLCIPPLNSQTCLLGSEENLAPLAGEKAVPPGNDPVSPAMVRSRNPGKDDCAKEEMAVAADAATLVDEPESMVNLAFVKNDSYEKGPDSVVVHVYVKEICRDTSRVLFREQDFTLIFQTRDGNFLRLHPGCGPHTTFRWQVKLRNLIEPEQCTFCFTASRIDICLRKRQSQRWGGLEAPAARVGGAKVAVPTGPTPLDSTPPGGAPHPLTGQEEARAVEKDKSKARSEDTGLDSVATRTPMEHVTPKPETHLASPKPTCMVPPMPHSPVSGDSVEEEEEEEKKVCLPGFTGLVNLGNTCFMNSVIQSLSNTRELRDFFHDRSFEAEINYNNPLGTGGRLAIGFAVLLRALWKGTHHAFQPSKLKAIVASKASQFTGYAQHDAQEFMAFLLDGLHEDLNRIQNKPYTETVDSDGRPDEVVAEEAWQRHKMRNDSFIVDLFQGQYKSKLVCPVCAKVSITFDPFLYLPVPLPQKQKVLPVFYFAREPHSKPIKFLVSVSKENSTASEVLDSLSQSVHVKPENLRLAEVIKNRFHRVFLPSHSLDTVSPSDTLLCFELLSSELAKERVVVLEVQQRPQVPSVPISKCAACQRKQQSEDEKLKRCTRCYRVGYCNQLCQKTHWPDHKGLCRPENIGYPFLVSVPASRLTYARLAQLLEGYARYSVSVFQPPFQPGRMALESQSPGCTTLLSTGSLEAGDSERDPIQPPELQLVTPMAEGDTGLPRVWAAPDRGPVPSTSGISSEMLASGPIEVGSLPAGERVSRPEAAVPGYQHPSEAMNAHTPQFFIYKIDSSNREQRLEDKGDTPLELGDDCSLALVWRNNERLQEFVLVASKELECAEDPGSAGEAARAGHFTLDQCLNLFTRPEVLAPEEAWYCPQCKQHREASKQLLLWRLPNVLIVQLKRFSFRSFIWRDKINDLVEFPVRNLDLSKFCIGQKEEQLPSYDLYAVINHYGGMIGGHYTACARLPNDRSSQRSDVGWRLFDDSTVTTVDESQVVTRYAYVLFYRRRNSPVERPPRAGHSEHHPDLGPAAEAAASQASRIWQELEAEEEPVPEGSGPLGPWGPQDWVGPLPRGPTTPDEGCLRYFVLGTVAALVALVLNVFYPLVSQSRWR

Mus musculus [7] = assay: Protection against sciatic nerve denervation-induced muscular atrophy in male C57BL/6 mouse assessed as decrease in muscle wasting in gastrocnemius muscle at 75 mg/kg, ip administered twice daily; format: functional, organism-based
[8] = Toxicity in high-fat diet-induced obesity model of male C57BL/6J mouse assessed as decrease in total protein content at 25 mg/kg, ip administered twice daily; format: organism-based; set-up: scale not given: the % may be the effect or the level left; settings: in vivo
[9] = Toxicity in high-fat diet-induced obesity model of male C57BL/6J mouse assessed as effect on body water content at 5 mg/kg, ip administered twice daily; format: organism-based; settings: in vivo
[10] = Toxicity in high-fat diet-induced obesity model of male C57BL/6J mouse assessed as decrease in total ash content at 25 mg/kg, ip administered twice daily; format: organism-based; set-up: scale not given: the % may be the effect or the level left; settings: in vivo
Mus musculus [11] = assay: Antiobesity activity in high-fat diet-induced obesity model of male C57BL/6J mouse assessed as reduction in lean mass at 5 to 25 mg/kg, ip administered twice daily; format: functional; set-up: scale not given: the % may be the effect or the level left; settings: dose 5-25 mg/kg
[12] = Inhibition of USP19 in mouse skeletal muscle cell measured by cell target engagement assay; format: cell-based
Mus musculus [13] = assay: Antiobesity activity in high-fat diet-induced obesity model of male C57BL/6J mouse assessed as reduction in epididymal fat mass at 5 to 25 mg/kg, ip administered twice daily; format: functional, organism-based; settings: dose 5-25 mg/kg
Mus musculus [14] = assay: Antiobesity activity in high-fat diet-induced obesity model of male C57BL/6J mouse assessed as increase in liver mass at 5 to 25 mg/kg, ip administered twice daily; format: functional, organism-based; settings: dose 5-25 mg/kg
Mus musculus [15] = assay: Anti-diabetic activity in high-fat diet-induced obesity model of male C57BL/6J mouse assessed as decrease in plasma insulin at 25 mg/kg, ip administered twice daily; format: functional, organism-based
Mus musculus [16] = assay: Protection against sciatic nerve denervation-induced muscular atrophy in male C57BL/6 mouse assessed as lower loss of tibialis anterior muscle at 75 mg/kg, ip administered twice daily; format: functional, organism-based
Mus musculus [17] = assay: Anti-diabetic activity in high-fat diet-induced obesity model of male C57BL/6J mouse assessed as decrease in plasma glucose at 25 mg/kg, ip administered twice daily; format: functional, organism-based
[18] = molecular target: T1, Ubiquitin carboxyl-terminal hydrolase 19; assay: Inhibition of C-terminal His6-tagged recombinant human USP19 using iso-peptide ubiquitin-Lys-TAMRA as substrate incubated for 30 mins and measured after 90 mins by fluorescent polarization assay
[19] = molecular target: T1, Ubiquitin carboxyl-terminal hydrolase 19; assay: Inhibition of USP19 (unknown origin) in neuroblastoma cell measured by cell target engagement assay; format: cell-based
[20] = Toxicity in high-fat diet-induced obesity model of male C57BL/6J mouse assessed as decrease in total body weight at 25 mg/kg, ip administered twice daily; format: organism-based; set-up: scale not given: the % may be the effect or the level left; settings: in vivo
[21] = Toxicity in high-fat diet-induced obesity model of male C57BL/6J mouse assessed as effect on total protein content at 5 mg/kg, ip administered twice daily; format: organism-based; settings: in vivo
Mus musculus [22] = assay: Antiobesity activity in high-fat diet-induced obesity model of male C57BL/6J mouse assessed as decrease in body weight gain at 5 to 25 mg/kg, ip administered twice daily; format: functional, organism-based; settings: dose 5-25 mg/kg
[23] = Toxicity in high-fat diet-induced obesity model of male C57BL/6J mouse assessed as reduction in body fat at 25 mg/kg, ip administered twice daily; format: organism-based; set-up: scale not given: the % may be the effect or the level left; settings: in vivo
Mus musculus [24] = assay: Antiobesity activity in high-fat diet-induced obesity model of male C57BL/6J mouse assessed as reduction in fat mass at 5 to 25 mg/kg, ip administered twice daily; format: functional; set-up: scale not given: the % may be the effect or the level left; settings: dose 5-25 mg/kg
[25] = Toxicity in high-fat diet-induced obesity model of male C57BL/6J mouse assessed as increase in body water content at 25 mg/kg, ip administered twice daily; format: organism-based; settings: in vivo

CCCCCCCCCCCCCCCC(=O)N[C@@H](CCC(=O)NCCCC[C@H](NC(=O)[C@H](C)NC(=O)[C@H](C)NC(=O)[C@H](CCC(N)=O)NC(=O)CNC(=O)[C@H](CCC(=O)O)NC(=O)[C@H](CC(C)C)NC(=O)[C@H](Cc1ccc(O)cc1)NC(=O)[C@H](CO)NC(=O)[C@H](CO)NC(=O)[C@@H](NC(=O)[C@H](CC(=O)O)NC(=O)[C@H](CO)NC(=O)[C@@H](NC(=O)[C@H](Cc1ccccc1)NC(=O)[C@@H](NC(=O)CNC(=O)[C@H](CCC(=O)O)NC(=O)[C@H](C)NC(=O)[C@@H](N)Cc1cnc[nH]1)[C@@H](C)O)[C@@H](C)O)C(C)C)C(=O)N[C@@H](CCC(=O)O)C(=O)N[C@@H](Cc1ccccc1)C(=O)N[C@H](C(=O)N[C@@H](C)C(=O)N[C@@H](Cc1c[nH]c2ccccc12)C(=O)N[C@@H](CC(C)C)C(=O)N[C@H](C(=O)N[C@@H](CCCNC(=N)N)C(=O)NCC(=O)N[C@@H](CCCNC(=N)N)C(=O)NCC(=O)O)C(C)C)[C@@H](C)CC)C(=O)O [LIRAGLUTIDE]
Activity [1]: -11.6%
Activity [2]: -7.9%
Activity [3]: 13%
Activity [4]: -8.6%
Activity [5]: 17.4%

C[C@H](CC1CCCCC1)C(=O)N1CC[C@@](O)(Cn2cc(C(=O)N3CCNCC3)c(-c3ccccc3)cc2=O)C2(CCCC2)C1
EC50 [6]: 9.9 nM
Activity (Mus musculus [7]): Active
Activity [8]: -7.2%
Activity [9]: Non-Toxic
Activity [10]: -9.6%
Activity (Mus musculus [11]): -3%
EC50 [12]: 13.5 nM
Activity (Mus musculus [13]): Active
Activity (Mus musculus [14]): Active
Activity (Mus musculus [15]): Active
Activity (Mus musculus [16]): Active
Activity (Mus musculus [17]): Active
IC50 [18]: < 500 nM
EC50 [19]: 32.8 nM
Activity [20]: 13%
Activity [21]: Non-Toxic
Activity (Mus musculus [22]): Active
Activity [23]: 24.9%
Activity (Mus musculus [24]): 24%
Activity [25]: 11.4%
